This note sets out measurements from US10040791B2, “Isoxazole derivative as mutant isocitrate dehydrogenase 1 inhibitor” (Daiichi Sankyo Company, Limited, priority 2014, dated 2018).

SMILES strings stand for the structures. Read-outs that look alike come from different tables or passages of the source.

By IC50 is commonly meant the concentration at which inhibition is half-maximal.

Test [1] relates to HT-1080 cells expressing IDH1R132C. As to the kind of experiment: 2-HG production inhibitory activity using HT1080 cell. It is filed as cell-based, human. To be noted: Homo sapiens. The protocol:
Then, 100 μL of growth medium B was added to each well, further 25 μL of a solution of each compound diluted to a predetermined concentration with growth medium B was added to each well, and the cells were incubated at 37° C. for 2 days under 5% CO2. […] Then, 150 μL of ultrapure water was further added to each well, and the mixture was stirred by pipetting and stored at −20° C.
The preserved solutions were thawed at room temperature.

Test [2] addresses IDH1R132C (Homo sapiens (Human), UniProt O75874, R132C). As to the kind of experiment: Inhibitory activity against IDH1R132C enzyme (NADPH detection, WST-8). To be noted: 10 nM, residual NADPH detected with WST-8, read-out: Test Example 1 IDH1 R132C IC50. Type of test: biochemical. The protocol:
After transformation of Rosetta 2 (DE3) E. coli, the expression of the protein was induced with IPTG.
While NADPH-derived fluorescence was occasionally monitored, the reaction was terminated by the addition of 5 μL of 0.5 M EDTA before consumption of NADPH. 5 μL of WST-8 reagent (Dojindo Laboratories, #CK04) was further added and mixed therewith. 15 minutes later, the absorbance at 450 nm was measured using a plate reader (PerkinElmer, Inc., EnVision). The observed absorbance value reflects the amount of residual NADPH. From the absorbance data, the enzyme inhibitory activity of each compound at each concentration was calculated and analyzed using medical statistical analysis software GraphPad Prism to calculate an IC50 value.
For orientation: Tetrazolium assays rely on reduction of a dye to a coloured formazan, in cell work by metabolically active cells.

The mark [3] stands for this setting: HT-1080, 2-HG production, HT1080 cells, read-out: Test Example 3 IC50.

Chain of IDH1R132C (O75874 whole entry R132C): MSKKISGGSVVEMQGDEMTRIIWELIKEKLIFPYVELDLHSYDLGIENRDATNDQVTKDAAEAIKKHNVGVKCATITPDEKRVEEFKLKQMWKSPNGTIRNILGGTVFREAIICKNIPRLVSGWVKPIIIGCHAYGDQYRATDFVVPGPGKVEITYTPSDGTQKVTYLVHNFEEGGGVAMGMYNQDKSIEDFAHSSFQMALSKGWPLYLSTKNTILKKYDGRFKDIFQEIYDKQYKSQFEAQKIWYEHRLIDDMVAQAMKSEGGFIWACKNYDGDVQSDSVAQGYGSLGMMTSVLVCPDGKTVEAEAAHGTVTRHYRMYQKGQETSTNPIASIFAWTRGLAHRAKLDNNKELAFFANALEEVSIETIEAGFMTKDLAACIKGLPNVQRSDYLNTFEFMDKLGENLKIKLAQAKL

As for `CCC1(c2onc(-c3c(Cl)cccc3Cl)c2C(=O)n2ccc3c(/C=C/C(=O)O)cccc32)COC1` [Example 5, (2E)-3-(1-{[3-(2,6-Dichlorophenyl)-5-(3-ethyloxetan-3-yl)-1,2-oxazol-4-yl]carbonyl}-1H-indol-4-yl)prop-2-enoic acid], the IC50 in test [1] (setting [3]) was 42 nM. Consider `O=C(O)/C=C/c1cccc2c1ccn2C(=O)c1c(-c2c(Cl)cc(Cl)cc2Cl)noc1C1(F)COC1` [Example 6, (2E)-3-(1-{[5-(3-Fluorooxetan-3-yl)-3-(2,4,6-trichlorophenyl)-1,2-oxazol-4-yl]carbonyl}-1H-indol-4-yl)prop-2-enoic acid], for which the results for the IC50 in test [1] (setting [3]) and in test [2] were 459 nM and 0.151 µM, respectively. Regarding `CC(C)(O)c1onc(-c2c(Cl)cccc2Cl)c1C(=O)n1ccc2c(/C=C/C(=O)O)cccc21` [Example 7, (2E)-3-(1-{[3-(2,6-Dichlorophenyl)-5-(2-hydroxypropan-2-yl)-1,2-oxazol-4-yl]carbonyl}-1H-indol-4-yl)prop-2-enoic acid], the IC50 in test [1] (setting [3]) came out at 787 nM; in test [2] it was 0.152 µM. Take `CC1(c2onc(-c3c(Cl)cc(Cl)cc3Cl)c2C(=O)n2ccc3c(/C=C/C(=O)O)ccnc32)COC1` [Example 9, (2E)-3-(1-{[5-(3-Methyloxetan-3-yl)-3-(2,4,6-trichlorophenyl)-1,2-oxazol-4-yl]carbonyl}-1H-pyrrolo[2,3-b]pyridin-4-yl]prop-2-enoic acid]: the IC50 amounted to 1270 nM in test [1] (setting [3]) and 0.107 µM in test [2]. As for `COC1(c2onc(-c3c(F)cc(Cl)cc3Cl)c2C(=O)n2cc(C)c3c(/C=C/C(=O)O)cccc32)CCC1` [Example 14, (2E)-3-(1-{[3-(2,4-Dichloro-6-fluorophenyl)-5-(1-methoxycyclobutyl)-1,2-oxazol-4-yl]carbonyl}-3-methyl-1H-indol-4-yl]prop-2-enoic acid], the figures for the IC50 in test [1] (setting [3]) and in test [2] were 32 nM and 0.11 µM, respectively.

Consider `COC1(c2onc(-c3c(F)cc(Cl)cc3Cl)c2C(=O)n2cc3c4c(cccc42)/C(=C/C(=O)O)CC3)CCC1` [Example 15, (2E)-[1-{[3-(2,4-Dichloro-6-fluorophenyl)-5-(1-methoxycyclobutyl)-1,2-oxazol-4-yl]carbonyl}-3,4-dihydrobenzo[cd]indol-5(1H)-ylidene]ethanoic acid], for which the IC50 in test [1] (setting [3]) was 37 nM; in test [2] it was 0.106 µM.

For `Cc1cn(C(=O)c2c(-c3ccc(Cl)c(F)c3Cl)noc2C(C)(C)F)c2cccc(/C=C/C(=O)O)c12` [Example 17], the IC50 in test [1] (setting [3]) was 242 nM; in test [2], 0.201 µM. Take `CC(C)(F)c1onc(-c2ccc(Cl)c(F)c2Cl)c1C(=O)n1cc2c3c(cccc31)/C(=C/C(=O)O)CC2` [Example 20, (2E)-[1-{[3-(2,4-Dichloro-3-fluorophenyl)-5-(2-fluoropropan-2-yl)-1,2-oxazol-4-yl]carbonyl}-3,4-dihydrobenzo[cd]indol-5(1H)-ylidene]ethanoic acid]: the results for the IC50 in test [1] (setting [3]) and in test [2] were 435 nM and 0.267 µM, respectively.

`CC(C)c1onc(-c2c(Cl)cccc2Cl)c1C(=O)n1ccc2c(/C=C/C(=O)O)cccc21` [Example 23, (2E)-3-(1-{[3-(2,6-Dichlorophenyl)-5-(propan-2-yl)-1,2-oxazol-4-yl]carbonyl}-1H-indol-4-yl)prop-2-enoic acid]: the IC50 in test [1] (setting [3]) came to 709 nM; in test [2], 0.075 µM.

For the molecule `CC(C)(C)c1onc(-c2c(Cl)cccc2Cl)c1C(=O)n1ccc2c(/C=C/C(=O)O)cccc21` [Example 24, (2E)-3-(1-{[5-(tert-Butyl)-3-(2,6-dichlorophenyl)-1,2-oxazol-4-yl]carbonyl}-1H-indol-4-yl)prop-2-enoic acid], the IC50 in test [1] (setting [3]) amounted to 255 nM; in test [2], 0.182 µM. Consider `Cc1cn(C(=O)c2c(-c3c(Cl)cccc3Cl)noc2C(C)C)c2cccc(/C=C/C(=O)O)c12` [Example 25, (2E)-3-(1-{[3-(2,6-Dichlorophenyl)-5-(propan-2-yl)-1,2-oxazol-4-yl]carbonyl}-3-methyl-1H-indol-4-yl)prop-2-enoic acid], for which the values for the IC50 in test [1] (setting [3]) and in test [2] were 248 nM and 0.326 µM, respectively. Turning to `CC(C)c1onc(-c2c(Cl)cc(Cl)cc2Cl)c1C(=O)n1ccc2c(/C=C/C(=O)O)cccc21` [Example 26, (2E)-3-(1-{[5-(Propan-2-yl)-3-(2,4,6-Trichlorophenyl)-1,2-oxazol-4-yl]carbonyl}-1H-indol-4-yl)prop-2-enoic acid], the IC50 in test [1] (setting [3]) worked out at 248 nM; in test [2], 0.253 µM. Consider `COC(C)(C)c1onc(-c2c(Cl)cccc2Cl)c1C(=O)n1ccc2c(/C=C/C(=O)O)cccc21` [Example 27, (2E)-3-(1-{[3-(2,6-Dichlorophenyl)-5-(2-methoxypropan-2-yl)-1,2-oxazol-4-yl]carbonyl}-1H-indol-4-yl)prop-2-enoic acid], for which the IC50 in test [1] (setting [3]) was found to be 128 nM; in test [2], 0.16 µM. For `CC(C)c1onc(-c2c(Cl)ccc(F)c2Cl)c1C(=O)n1ccc2c(/C=C/C(=O)O)cccc21` [Example 28, (2E)-3-(1-{[3-(2,6-Dichloro-3-fluorophenyl)-5-(propan-2-yl)-1,2-oxazol-4-yl]carbonyl}-1H-indol-4-yl)prop-2-enoic acid], the results for the IC50 in test [1] (setting [3]) and in test [2] were 401 nM and 0.09 µM, respectively.

On to `Cc1cn(C(=O)c2c(-c3c(Cl)ccc(F)c3Cl)noc2C(C)C)c2cccc(/C=C/C(=O)O)c12` [Example 30, (2E)-3-(1-{[3-(2,6-Dichloro-3-fluorophenyl)-5-(propan-2-yl)-1,2-oxazol-4-yl]carbonyl}-3-methyl-1H-indol-4-yl)prop-2-enoic acid], for which the IC50 in test [1] (setting [3]) turned out to be 350 nM; in test [2], 0.114 µM. Regarding `COC(C)(C)c1onc(-c2c(Cl)cc(Cl)cc2Cl)c1C(=O)n1ccc2c(/C=C/C(=O)O)cccc21` [Example 31, (2E)-3-(1-{[5-(2-Methoxypropan-2-yl)-3-(2,4,6-trichlorophenyl)-1,2-oxazol-4-yl]carbonyl}-1H-indol-4-yl)prop-2-enoic acid], the IC50 is 24 nM in test [1] (setting [3]) and 0.057 µM in test [2]. On the same counts, the results for `CC(C)(C)c1onc(-c2c(Cl)cc(Cl)cc2Cl)c1C(=O)N1CCc2c(/C=C/C(=O)O)cccc21` [Example 32, (2E)-3-(1-{[5-(tert-Butyl)-3-(2,4,6-trichlorophenyl)-1,2-oxazol-4-yl]carbonyl}-2,3-dihydro-1H-indol-4-yl)prop-2-enoic acid] are 413 nM and 0.176 µM. Take `CC(C)(C)c1onc(-c2c(Cl)cccc2Br)c1C(=O)n1ccc2c(/C=C/C(=O)O)cccc21` [Example 39, (2E)-3-(1-{[3-(2-Bromo-6-chlorophenyl)-5-(tert-butyl)-1,2-oxazol-4-yl]carbonyl}-1H-indol-4-yl)prop-2-enoic acid]: the IC50 is 389 nM in test [1] (setting [3]) and 0.168 µM in test [2].

On to `Cc1cc(Cl)cc(Cl)c1-c1noc(C(C)(C)C)c1C(=O)n1ccc2c(/C=C/C(=O)O)cccc21` [Example 41, (2E)-3-(1-{[5-(tert-Butyl)-3-(2,4-dichloro-6-methylphenyl)-1,2-oxazol-4-yl]carbonyl}-1H-indol-4-yl)prop-2-enoic acid], for which the figures for the IC50 in test [1] (setting [3]) and in test [2] were 254 nM and 0.28 µM, respectively.

Take `CC(C)(F)c1onc(-c2c(Cl)cc(Cl)cc2Cl)c1C(=O)n1cc(F)c2c(/C=C/C(=O)O)cccc21` [Example 45, (2E)-3-(3-Fluoro-1-{[5-(2-fluoropropan-2-yl)-3-(2,4,6-trichlorophenyl)-1,2-oxazol-4-yl]carbonyl}-1H-indol-4-yl)prop-2-enoic acid]: the IC50 was determined as 60 nM in test [1] (setting [3]) and 0.114 µM in test [2].

Consider `COc1cc(Cl)cc(Cl)c1-c1noc(C(C)(C)F)c1C(=O)n1cc(C)c2c(/C=C/C(=O)O)cccc21` [Example 58, (2E)-3-(1-{[3-(2,4-Dichloro-6-methoxyphenyl)-5-(2-fluoropropan-2-yl)-1,2-oxazol-4-yl]carbonyl}-3-methyl-1H-indol-4-yl)prop-2-enoic acid], for which the IC50 was found to be 295 nM in test [1] (setting [3]) and 0.178 µM in test [2]. `CC(=O)c1cn(C(=O)c2c(-c3c(Cl)cc(Cl)cc3Cl)noc2C(C)(C)F)c2cccc(/C=C/C(=O)O)c12` [Example 64, (2E)-3-(3-Acetyl-1-{[5-(2-fluoropropan-2-yl)-3-(2,4,6-trichlorophenyl)-1,2-oxazol-4-yl]carbonyl}-1H-indol-4-yl)prop-2-enoic acid]: the IC50 was > 2000 nM in test [1] (setting [3]) and 0.888 µM in test [2]. Take `C=Cc1ccc(-c2onc(-c3c(Cl)cc(Cl)cc3Cl)c2C(=O)n2ccc3c(/C=C/C(=O)O)cccc32)cn1` [Example 73, (2E)-3-(1-{[5-(6-Ethenylpyridin-3-yl)-3-(2,4,6-trichlorophenyl)-1,2-oxazol-4-yl]carbonyl}-1H-indol-4-yl)prop-2-enoic acid]: the IC50 in test [1] (HT-1080, read-out: Test Example 3 IC50 (nM)) turned out to be 7 nM; in test [2] it was 0.208 µM. `NC[C@H]1CCN(c2onc(-c3c(Cl)cccc3Cl)c2C(=O)n2ccc3c(/C=C/C(=O)O)cccc32)C1` [Example 139, (2E)-3-[1-({5-[(3R)-3-(Aminomethyl)pyrrolidin-1-yl]-3-(2,6-dichlorophenyl)-1,2-oxazol-4-yl}carbonyl)-1H-indol-4-yl]prop-2-enoic acid]: the IC50 in test [1] (setting [3]) came to 339 nM. For the molecule `NC[C@@H]1CCN(c2onc(-c3c(Cl)cccc3Cl)c2C(=O)n2ccc3c(/C=C/C(=O)O)cccc32)C1` [Example 140], in test [2], the IC50 is 1.04 µM.
